The values that follow come from paper PMC5353780, “A novel benzo-heterocyclic amine derivative N30 inhibits influenza virus replication by depression of Inosine-5’-Monophospate Dehydrogenase activity” (Virology Journal, 2017).

Each structure is given as a SMILES string. Structures can show the parent of a compound that is named as a salt. Where two headings read alike, the source gives them in different places.

One series deals with BY/fujianxinluo/54/2006. Kind of series: CPE assay in MDCK cells. It is filed as cell-based, influenza B virus. As to conditions: for IC50: Influenza B virus, CPE, MDCK cells; for SI: TC50/IC50.
In another series the test system is BV/shenzhen/155/2005. Kind of series: CPE assay in MDCK cells. Conditions: for IC50: Influenza B virus, CPE, MDCK cells; for SI: TC50/IC50. Format: cell-based, influenza B virus.
A further series relates to A/FortMonmouth/1/1947. The experiment in a line: CPE assay in MDCK cells. It is filed as cell-based, Influenza A virus (H1N1). Conditions: for IC50: Influenza A virus, CPE, MDCK cells; for SI: TC50/IC50.
For a further series, the system named is A/wuhan/359/1995. The experiment in a line: CPE assay in MDCK cells. It is filed as cell-based, Influenza A virus (H3N2). Conditions: for IC50: Influenza A virus, CPE, MDCK cells; for SI: TC50/IC50.
Another series concerns IAV. As to conditions: in vitro, at low micromolar concentrations; cited from earlier work.
The next series deals with CVB2 (strain Ohio-1). Kind of series: CPE assay. It is filed as cell-based, Coxsackie virus B. Conditions: for IC50: Enterovirus B, CVB2, Ohio-1, CPE.
For the next series, the system named is MDCK cells. Conditions: dog, 48 h.
Series [1] deals with Vero cells. As to conditions: African green monkey, 48 h.
A further series concerns CVB6 (strain Schmitt). Kind of series: CPE assay. As to conditions: for IC50: CPE. Format: cell-based, Coxsackie virus B.
Series [2] relates to IAV A/Fort Monmouth/1/1947 (H1N1). The experiment in a line: IAV M2 protein and RNA expression in MDCK cells (western blot, qRT-PCR). Format: cell-based, Influenza A virus (H1N1). Conditions: 0.01 MOI, 24 h post-infection, Fig. 1c and d. The procedure:
Fig. 1 Effects of N30 on IAV M2 protein and RNA expression in MDCK. a Chemical structure of N30. b The effect of N30 on viabilities of MRC-5, Vero, MDCK and Hep2 cells, which were measured by CCK. c The effect of N30 with different concentrations on IAV M2 protein and RNA expression. d The effect of N30 on IAV M2 protein and RNA expression compared with reference drugs. MDCK cells were infected with IAV A/Fort Monmouth/1/1947(H1N1) (0.01 multiplicity of infection [MOI, plaque-forming units (PFU)/cell]) for 2 hours, and treated with different concentrations of N30 or reference drugs for 24 h. Total mRNA and protein were extracted at 24 h post-infection, and analyzed by qRT-PCR and Western blotting respectively. […]
Cells were collected at 24 h post-infection and lysed in M-PER mammalian protein extraction reagent containing halt protease inhibitor cocktail (Thermo Fisher Scientific), sample proteins were subjected to SDS-PAGE and transferred to PVDF membrane (Millipore). After blocked with 5% milk, the membranes were incubated with antibodies against Influenza M2, β-actin (Santa Cruz), CVB3 VP1 (Millipore), IMPDH type II (Sigma-Aldrich), RSV M2 (Santa Cruz) and coronavirus (FIPV-70, Santa Cruz) respectively, then, the HRP-conjugated secondary antibodies were incubated and the signals were detected using an enhanced chemiluminescence (ECL) kit (GE Healthcare Life Sciences). […]
Background: A western blot detects proteins with antibodies after separation by electrophoresis.

A further series relates to viral hemagglutinin. The arrangement: species or system Influenza A virus. Conditions: maximum concentration 40 μM, 10-fold dilutions; Fig. 2b.
In series [3] the test system is IMPDH type II. The experiment in a line: IMPDH type II expression by western blot in MDCK cells. Conditions: 24 h treatment, Fig. 3a. Format: cell-based, canine.
Series [4] is described as follows: In vivo toxicity, body weight in mice. The arrangement: species or system female Kun Ming mice. Conditions: 100 mg/kg by oral administration in mice. The procedure: To determine the in vivo toxicity of N30 preliminarily, female Kun Ming mice were gavaged 100 mg/kg and 50 mg/kg N30 twice a day. Six mice enrolled in each group were gavaged with N30 or vehicle for continuous administration for 14 days, then weighted at day 0, 5, 10 and 14 respectively, shown in Table 5.

Another series deals with RSV. Format: cell-based, respiratory syncytial virus (long strain).
For the next series, the system named is EV71(SZ98). Kind of series: CPE assay. Conditions: for IC50: Enterovirus A, EV71, CPE; for SI: TC50/IC50. Format: cell-based, Human enterovirus 71.
Series [5] concerns the target T1, IMPDH type II (Homo sapiens, UniProt P12268).
T1 construct: purchased Sigma-Aldrich
Kind of series: Enzymatic assay of IMPDH type II. It is filed as biochemical. Conditions: after N30 treatment; Fig. 3b. The procedure: The enzymatic assay was employed to evaluate the inhibitory effect of N30 on the activity of IMPDH type II by following the increase in formation of nicotinamide-adenine dinucleotide (NADH), which absorbance was read at 340 nm on Enspire at 30 °C. The 200 μL assay buffer contained 1 M Tris/HCl (pH 8.8), 1 M KCl, 30 mM EDTA, 10 μL IMPDH type II (Sigma-Aldrich), 1 mM DTT and NAD (Sigma-Aldrich). The reaction was started after addition of IMP, with final concentrations was 1 mM [19].

A further series relates to CVB5 (strain Faulkner). The experiment in a line: CPE assay. Format: cell-based, Coxsackie virus B. As to conditions: for IC50: Enterovirus B, CVB5, CPE.
A further series deals with NA of IAV A/FM1/1947. Kind of series: NA inhibition assay (MUNANA). Format: biochemical, Influenza A virus. As to conditions: Fig. 2a.
For a further series, the system named is CVB1 (strain Conn-5). The experiment in a line: CPE assay. It is filed as cell-based, Coxsackie virus B. As to conditions: for IC50: Enterovirus B, CVB1, CPE.
The subject of the next series is EV71(BrCr). The experiment in a line: CPE assay. It is filed as cell-based, Human enterovirus 71. Conditions: for IC50: Enterovirus A, EV71, CPE; for SI: TC50/IC50.
A further series has as its system CVB3 (strain Nancy). The experiment in a line: CPE assay. It is filed as cell-based, Coxsackie virus B. As to conditions: for IC50: Enterovirus B, CVB3, CPE.
Another series relates to CVB4 (strain J.V.B.). The experiment in a line: CPE assay. Format: cell-based, Coxsackie virus B. Conditions: for IC50: Enterovirus B, CVB4, CPE.
In series [6] the test system is Vero cells. Kind of series: Cytotoxicity test (CCK). Conditions: 50% toxicity concentration.
For series [7] the following is noted: human, in vivo, cited from earlier work.
The conditions of series [8]: in vivo; cited from earlier work.

Method for viral hemagglutinin: Briefly, the diluted IAV were mixed with diluted compounds in a U bottom 96-well plate. After incubation at 4 °C for 40 min, equal volume of 1.2% chicken erythrocyte suspension was added to each well. Then, the erythrocyte aggregation was evaluated by visual inspection after 40 min [17, 18].

A word on the IC50: it is the concentration that gives 50% inhibition. A high value points to a need for much substance. As to `NC12CC3CC(CC(C3)C1)C2` [AH, amantadine hydrochloride], the IC50 in the series on BY/fujianxinluo/54/2006 is above 200 µM; in the series on BV/shenzhen/155/2005 it was above 200 µM; in the series on A/FortMonmouth/1/1947 it was 0.65 ± 0.59 µM; in the series on A/wuhan/359/1995, 15.6 ± 0.31 µM.
With `O=[N+]([O-])c1ccc(CNc2ccc3ncsc3c2)cc1` [N30, N-(4-nitrophenylmethyl) benzothiazole-6-amine], in the series on IAV, the “activity towards IAV” value is “potent activity”. The concentration for half-maximal inhibition (IC50) in the series with CVB2 (strain Ohio-1) is 11.7 ± 2.94 µM; in the series on CVB6 (strain Schmitt), 6.81 ± 1.89 µM; in the series with BY/fujianxinluo/54/2006 it was 0.7 ± 0.18 µM; in the series with BV/shenzhen/155/2005 it was 1.16 ± 0.69 µM; with EV71(SZ98), 10.6 ± 3.76 µM; in the series on CVB5 (strain Faulkner) it was 2.54 ± 1.43 µM. Besides, the IC50 with CVB1 (strain Conn-5) was 6.28 ± 1.61 µM; with EV71(BrCr), 8.04 ± 3.77 µM; in the series on A/FortMonmouth/1/1947, 1.93 ± 0.16 µM; with CVB3 (strain Nancy), 1.82 ± 2.76 µM; with A/wuhan/359/1995, 1.31 ± 0.87 µM; in the series with CVB4 (strain J.V.B.) it was 10.4 ± 3.13 µM. Also, the SI in the series on CVB2 (strain Ohio-1) (TC50/IC50) is given as 7.69; in the series with CVB6 (strain Schmitt), 13.15; with BY/fujianxinluo/54/2006 it was 95.24; in the series on BV/shenzhen/155/2005, 57.47; with EV71(SZ98), 8.42; in the series with CVB5 (strain Faulkner) (TC50/IC50), 35.26. The SI amounted to 14.26 in the series with CVB1 (strain Conn-5) (TC50/IC50); 11.14 in the series on EV71(BrCr); 34.54 in the series with A/FortMonmouth/1/1947; 49.21 with CVB3 (strain Nancy) (TC50/IC50); 50.89 in the series on A/wuhan/359/1995; 8.64 in the series with CVB4 (strain J.V.B.) (TC50/IC50). In addition, the TC50 in the series with MDCK cells was found to be 66.67 µM; with Vero cells [1], 89.56 ± 4.25 µM. Moreover, in [2], the “amounts of IAV M2 protein and RNA” value is on record as “dosage dependent relationship”. Besides, the “hemagglutination inhibition (aggregation of chicken erythrocytes)” value (shortened to “hemagglutination inhibition”) in the series with viral hemagglutinin is recorded as “could not inhibit the aggregation of chicken erythrocytes”. The IMPDH expression result in the series on IMPDH type II [3] was “have not been lessened”. Further, the acute toxicity entry in series [4] is recorded as “little acute toxicity”. The “expression of the viral proteins” value in the series on RSV (10 μM N30, RSV-infected Hep2 cells) is listed as “almost completely inhibit”. In the series on RSV (RSV-infected Hep2 cells, 0.025 MOI, 24 h, Fig. 4b), the “RSV M2 mRNA and protein expressions” value is listed as “markedly decreased”. Further, the “reduction of the enzymatic reaction rate of IMPDH” value on IMPDH type II [5] came to 38.18%. The “effect on NA activity” value with NA of IAV A/FM1/1947 is given as “little inhibitory effect”.
As to `NC(=O)c1ncn([C@@H]2O[C@H](CO)[C@@H](O)[C@H]2O)n1` [RBV, Ribavirin], the IC50 with CVB2 (strain Ohio-1) is 2270 ± 180 µM; with CVB6 (strain Schmitt), 4560 ± 2410 µM; with BY/fujianxinluo/54/2006, 2.48 ± 0.53 µM; in the series with BV/shenzhen/155/2005, 1.7 ± 0.57 µM; in the series with CVB5 (strain Faulkner), 1200 ± 530 µM; with CVB1 (strain Conn-5), 2370 ± 360 µM. The IC50 came to 1.64 ± 0.72 µM in the series with A/FortMonmouth/1/1947, 3130 ± 1210 µM in the series with CVB3 (strain Nancy), 8.23 ± 6.31 µM in the series on A/wuhan/359/1995 and 2470 ± 1600 µM in the series on CVB4 (strain J.V.B.). The “hemagglutination inhibition” value in the series on viral hemagglutinin is “did not show the inhibitory effect”. Moreover, the IMPDH expression result in the series on IMPDH type II [3] is given as “no inhibition”. In addition, in the series on Vero cells [6] (Table 3), the TC50 is above 20000 µM. In addition, in series [7] (po), the bilirubin values entry is recorded as “elevated the bilirubin values”. For the same compound, in [7], the anemia entry is listed as “transient anemia”.
On to `CCOC(=O)c1ccc(OCCC2CCN(c3ccc(C)nn3)CC2)cc1` [Pirodavir], for which the TC50 with Vero cells [6] (Tables 3 and 4, CCK, 48 h) was determined as 32.57 ± 0.55 µM. In the series with EV71(SZ98), this compound displayed an IC50 of 0.27 ± 0.27 µM and an SI of 120.6. In the series on EV71(BrCr), this compound came in with an IC50 of 0.16 µM and an SI of 203.56.
`CCC(CC)O[C@@H]1C=C(C(=O)O)C[C@H](N)[C@H]1NC(C)=O` [OC, oseltamivir carboxylate] gave a TC50 in the series on MDCK cells above 50 µM. Further, the “hemagglutination inhibition” value with viral hemagglutinin is “did not show the inhibitory effect”. The IC50 was 0.56 ± 0.02 µM with BY/fujianxinluo/54/2006, 1.02 ± 0.08 µM in the series with BV/shenzhen/155/2005, 0.25 ± 0.01 µM in the series on A/FortMonmouth/1/1947 and 0.12 ± 0.01 µM with A/wuhan/359/1995. Moreover, the SI in the series on BY/fujianxinluo/54/2006 is listed as above 89.28; in the series with BV/shenzhen/155/2005, above 49.02; with A/FortMonmouth/1/1947 it was above 200; in the series with A/wuhan/359/1995, above 416.67. Also, in the series with NA of IAV A/FM1/1947, the “effect on NA activity” value is recorded as “significantly reduce the activity of NA in a dose dependent manner”.
Consider `COc1c(C)c2c(c(O)c1C/C=C(\C)CCC(=O)OCCN1CCOCC1)C(=O)OC2` [MMF, mycophenolate mofetil], for which the side effects entry in series [8] is “diarrhea, leucopenia, sepsis, and vomiting”.
